# Literature values in patent US20240335532A1, “NANOPARTICULATE FORMULATION” (NewImmune II, LLC, priority 2021, published 2024).
# Like-named read-outs stand apart in the source and are kept apart here.
# Columns and labels:
# influenza [1] = details: 50 μg intraperitoneally, with influenza vaccine, mice
# [2] = single subcutaneous dose, rats
# [3] = intravenous 0.5 to 5.0 mg/kg, dogs
# [4] = intravenous 2 mg/kg/day, gestational Days 6-18, pregnant rabbits
# [5] = 2000 and 5000 mg/kg under occlusion, rabbits
# [6] = 30 mg subcutaneous dose, healthy human volunteers
# influenza [7] = details: topical pre-treatment, young and elderly individuals
# [8] = dermal exposure, mice
# [9] = mice
# [10] = rats
# [11] = monkeys
smiles,measurement,setting,value
"CC(C)Cn1cnc2c(N)nc3ccccc3c21 [imiquimod, 1-(2-methylpropyl)imidazo[4,5-c]quinolin-4-amine]",pH of maximum solubility in aqueous solution,Britton-Robinson buffer,≤ 2
same,aqueous solubility,above pH 6,only sparingly soluble
same,solubility in aqueous solution,physiological pH,very low solubility
same,humoral immune responses against the virus,influenza [1],significantly expedited and augmented
same,protection against early lethal viral challenges,influenza [1],conferred significant protection
same,subcutaneous lethal dose,[2],20 mg/kg
same,cardiovascular and nervous system effects,[3],"produced cardiac stimulation, central nervous system stimulation and some evidence of autonomic nervous system inhibition"
same,embryofetal toxicity or teratogenicity,[4],No treatment related effects
same,dermal toxicity,[5],no deaths and no signs of toxicity other than mild transient erythema at the application site
same,tolerability,[6],well tolerated
same,immunogenicity of influenza vaccination,influenza [7],significantly improves the immunogenicity
same,incidence of tumors or non-neoplastic lesions,[8],no increase
same,single dose toxicity,[9],high degree of safety
same,single dose toxicity,[10],high degree of safety
same,single dose toxicity,[11],high degree of safety
